From ChEMBL document CHEMBL3232999, “Computer-aided identification of novel 3,5-substituted rhodanine derivatives with activity against Staphylococcus aureus DNA gyrase” (Bioorg Med Chem, 2014) come the findings set out here.

In test [1] the test system is Staphylococcus aureus. Kind of test: Antimicrobial activity against methicillin-resistant Staphylococcus aureus ATCC 33592 after 24 hrs by two-fold serial dilution method. The class given is functional. The conditions noted are these: ATCC 33592, 24 h.
The test system of test [2] is Staphylococcus aureus. Kind of test: Antimicrobial activity against Staphylococcus aureus ATCC 6538 after 24 hrs by two-fold serial dilution method. The conditions noted are these: ATCC 6538, 24 h. The class given is functional.
Test [3] concerns Staphylococcus aureus. Kind of test: Antimicrobial activity against Staphylococcus aureus ISP 794 after 24 hrs by two-fold serial dilution method. In kind it is functional. The conditions noted are these: ISP 794, 24 h.
For test [4], the system named is Staphylococcus aureus. Kind of test: Antimicrobial activity against Staphylococcus aureus carolina after 24 hrs by two-fold serial dilution method. In kind it is functional.
The subject of test [5] is Escherichia coli. Kind of test: Antimicrobial activity against Escherichia coli MG1655 after 24 hrs by two-fold serial dilution method. The class given is functional. The conditions noted are these: MG1655, 24 h.
Test [6] deals with T1, DNA gyrase (Staphylococcus aureus) (UniProt P0A0K8+P20831). Kind of test: Inhibition of Staphylococcus aureus DNA gyrase-mediated supercoiling of relaxed DNA using N0471S as substrate at 20 uM after 30 mins by using […] staining-based agarose gel electrophoresis. The class given is protein-complex assay.
Test [7] deals with Escherichia coli. Kind of test: Inhibition of Escherichia coli DNA gyrase-mediated supercoiling of relaxed DNA using N0471S as substrate after 30 mins by using […] staining-based agarose gel electrophoresis.
A further test concerns the target DNA gyrase subunit B (Staphylococcus aureus, UniProt P0A0K8). Kind of test: Inhibition of Staphylococcus aureus DNA gyrase subunit B ATPase activity assessed as consumption of inorganic phosphate by PNP-based absorbance assay.
In test [8] the target is DNA gyrase subunit B (Staphylococcus aureus) (UniProt P0A0K8). Kind of test: Inhibition of Staphylococcus aureus DNA gyrase subunit B ATPase activity assessed as consumption of inorganic phosphate at 30 uM by PNP-based absorbance assay relative to control; values are per cent of control.
Test [9] shares this target. Kind of test: Inhibition of Staphylococcus aureus DNA gyrase subunit B ATPase activity assessed as consumption of inorganic phosphate at 10 uM by PNP-based absorbance assay relative to control; values are per cent of control.
Test [10] shares this target. Kind of test: Inhibition of Staphylococcus aureus DNA gyrase subunit B ATPase activity assessed as consumption of inorganic phosphate at 300 uM by PNP-based absorbance assay relative to control; values are per cent of control.
Test [11] shares this target. Kind of test: Inhibition of Staphylococcus aureus DNA gyrase subunit B ATPase activity assessed as consumption of inorganic phosphate at 100 uM by PNP-based absorbance assay relative to control; values are per cent of control.
Test [12] concerns the target T1, DNA gyrase (Staphylococcus aureus). Kind of test: Inhibition of Staphylococcus aureus DNA gyrase-mediated supercoiling of relaxed DNA using N0471S as substrate at 160 uM after 30 mins by using […] staining-based agarose gel electrophoresis. The class given is protein-complex assay.
The target is the same in test [13]. Kind of test: Inhibition of Staphylococcus aureus DNA gyrase-mediated supercoiling of relaxed DNA using N0471S as substrate at 160 to 500 uM after 30 mins by using […] staining-based agarose gel electrophoresis. In kind it is protein-complex assay.

The structures appear in SMILES notation. In brackets after ≈: the same amount, converted by molar mass. Activity calls are given as the source filed them. No cut-off for these calls is given here. Bounds are passed on as bounds.

Sequence of DNA gyrase subunit B (Staphylococcus aureus) (P0A0K8 2-644 limits assumed): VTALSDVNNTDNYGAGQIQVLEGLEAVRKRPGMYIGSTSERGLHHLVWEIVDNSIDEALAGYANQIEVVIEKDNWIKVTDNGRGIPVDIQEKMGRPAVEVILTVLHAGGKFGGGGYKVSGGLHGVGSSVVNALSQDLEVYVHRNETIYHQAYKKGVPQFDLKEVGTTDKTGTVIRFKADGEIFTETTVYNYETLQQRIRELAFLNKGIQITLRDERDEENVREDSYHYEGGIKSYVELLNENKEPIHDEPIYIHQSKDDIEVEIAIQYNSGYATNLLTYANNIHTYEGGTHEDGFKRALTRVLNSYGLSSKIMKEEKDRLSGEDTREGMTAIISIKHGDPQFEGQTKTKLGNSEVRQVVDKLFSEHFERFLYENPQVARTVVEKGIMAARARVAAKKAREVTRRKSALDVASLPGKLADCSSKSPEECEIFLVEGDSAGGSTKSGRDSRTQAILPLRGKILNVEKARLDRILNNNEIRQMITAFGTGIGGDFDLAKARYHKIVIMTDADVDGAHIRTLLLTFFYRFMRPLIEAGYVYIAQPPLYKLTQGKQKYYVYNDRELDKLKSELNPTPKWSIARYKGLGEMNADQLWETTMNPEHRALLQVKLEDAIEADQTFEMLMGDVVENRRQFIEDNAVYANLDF
T1 sequence (P0A0K8 2-644 limits assumed): as above
T1 sequence (P20831 whole entry partner): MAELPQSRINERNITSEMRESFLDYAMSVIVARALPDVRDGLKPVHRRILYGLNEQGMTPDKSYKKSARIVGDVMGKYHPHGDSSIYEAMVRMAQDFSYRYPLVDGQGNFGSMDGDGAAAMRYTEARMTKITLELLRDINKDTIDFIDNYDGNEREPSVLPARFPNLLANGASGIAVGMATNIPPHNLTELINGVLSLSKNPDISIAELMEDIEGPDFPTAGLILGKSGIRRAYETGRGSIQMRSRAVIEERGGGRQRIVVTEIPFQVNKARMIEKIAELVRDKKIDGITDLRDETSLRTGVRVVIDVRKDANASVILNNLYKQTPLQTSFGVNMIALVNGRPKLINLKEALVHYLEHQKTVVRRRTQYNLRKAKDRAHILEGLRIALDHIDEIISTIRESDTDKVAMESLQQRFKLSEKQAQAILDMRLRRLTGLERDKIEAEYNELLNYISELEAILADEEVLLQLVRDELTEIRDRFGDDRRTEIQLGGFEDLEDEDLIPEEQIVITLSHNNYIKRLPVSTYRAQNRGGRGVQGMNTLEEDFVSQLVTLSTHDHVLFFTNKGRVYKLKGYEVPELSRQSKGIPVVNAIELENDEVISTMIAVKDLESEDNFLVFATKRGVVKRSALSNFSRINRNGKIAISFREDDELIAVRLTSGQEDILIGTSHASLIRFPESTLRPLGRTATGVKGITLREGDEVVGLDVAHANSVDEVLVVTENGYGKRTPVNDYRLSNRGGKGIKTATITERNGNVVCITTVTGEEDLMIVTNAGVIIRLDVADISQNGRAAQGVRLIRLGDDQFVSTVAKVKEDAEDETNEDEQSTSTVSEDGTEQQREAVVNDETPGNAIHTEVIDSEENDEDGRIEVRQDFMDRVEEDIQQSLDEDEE
Sequence of DNA gyrase subunit B (P0A0K8 whole entry): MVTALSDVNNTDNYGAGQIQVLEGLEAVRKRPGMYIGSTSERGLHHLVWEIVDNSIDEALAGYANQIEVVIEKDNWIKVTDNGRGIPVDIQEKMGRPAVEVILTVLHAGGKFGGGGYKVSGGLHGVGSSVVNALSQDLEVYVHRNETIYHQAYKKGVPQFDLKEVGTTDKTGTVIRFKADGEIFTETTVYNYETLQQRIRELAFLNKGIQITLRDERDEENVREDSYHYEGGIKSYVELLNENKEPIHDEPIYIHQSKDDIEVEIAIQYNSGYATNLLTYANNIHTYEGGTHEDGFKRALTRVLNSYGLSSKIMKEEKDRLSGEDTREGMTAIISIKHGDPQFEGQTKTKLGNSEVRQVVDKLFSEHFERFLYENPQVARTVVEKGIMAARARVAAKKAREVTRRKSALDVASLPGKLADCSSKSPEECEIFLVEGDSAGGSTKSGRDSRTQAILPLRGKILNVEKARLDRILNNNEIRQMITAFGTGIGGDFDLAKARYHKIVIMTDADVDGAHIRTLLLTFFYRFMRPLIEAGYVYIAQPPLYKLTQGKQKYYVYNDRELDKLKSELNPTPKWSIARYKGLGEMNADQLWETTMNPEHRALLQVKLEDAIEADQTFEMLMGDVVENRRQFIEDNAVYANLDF

Turning to `COc1cccc([C@@H]2Nc3c(ccc(C(=O)O)c3C)[C@H]3C=CC[C@H]32)c1`, the MIC with Staphylococcus aureus [1] was determined as 125 µg/mL (≈ 373 µM); in the test with Staphylococcus aureus [2], 62.5 µg/mL (≈ 186 µM).
In the case of `NC(=O)NC(=O)COC(=O)c1ccc(Cl)c(S(=O)(=O)N(Cc2ccccc2)c2ccc(Cl)cc2)c1`, the figures for the MIC against Staphylococcus aureus [1] and in the test with Staphylococcus aureus [2] were 500 µg/mL (≈ 932 µM) and 125 µg/mL (≈ 233 µM), respectively.
`Cc1cccc(NS(=O)(=O)c2cc(C(N)=O)ccc2Cl)c1C`: the MIC in the test with Staphylococcus aureus [1] and in the test with Staphylococcus aureus [2] was 62.5 µg/mL (≈ 184 µM) throughout.
As for `Cc1cccc([C@]2(C)CC(C)(C)N(C(=O)CSc3nc[nH]n3)c3ccccc32)c1`, the figures for the MIC in the test on Staphylococcus aureus [1] and against Staphylococcus aureus [2] were 500 µg/mL (≈ 1230 µM) and 125 µg/mL (≈ 307 µM), respectively.
Turning to `O=C(O)C[C@H](c1ccccc1)N1C(=O)/C(=C/c2ccccc2Cl)SC1=S`, the MIC was 31 µM (≈ 12.5 µg/mL) against Staphylococcus aureus [3], 46.5 µM (≈ 18.8 µg/mL) in the test with Staphylococcus aureus [4] and more than 100 µg/mL in the test on Escherichia coli [5]. The inhibition entry (in [6]; with Escherichia coli [7]) was “inactive” each time. The IC50 on DNA gyrase subunit B came to 100 µM. The residual activity in [8] came out at 76%; in test [9], 84%; in test [10] it was 25%; in test [11], 52%.
`CCc1ccccc1N1C(=O)/C(=C/c2cccc(O)c2)SC1=S`: the figures for the MIC in the test with Staphylococcus aureus [3], with Staphylococcus aureus [4] and against Escherichia coli [5] were 13.5 µM (≈ 4.61 µg/mL), 27 µM (≈ 9.22 µg/mL) and more than 100 µg/mL, respectively. For the same compound, the inhibition entry in test [12] was “Active”. Also, the inhibition entry in the test on Escherichia coli [7] is “inactive”.
As to `O=C(O)C[C@H](C(=O)O)N1C(=O)/C(=C\c2ccc(-c3cc(Cl)ccc3Cl)o2)SC1=S`, the MIC against Staphylococcus aureus [3] is 159 µM (≈ 75.1 µg/mL); in the test with Staphylococcus aureus [4] it was 159 µM (≈ 75.1 µg/mL); against Escherichia coli [5] it was more than 100 µg/mL. Further, the inhibition result in [13] was “Active”. Besides, the inhibition entry (in test [6]; in the test on Escherichia coli [7]) was “inactive” in each case. The IC50 on DNA gyrase subunit B turned out to be 30 µM. In addition, the residual activity is 66% in test [8], 84% in test [9], 23% in test [10] and 23% in [11].
As for `CC(=O)Oc1ccc([C@@H]2Oc3nc(SCc4ccccc4Cl)nnc3-c3ccccc3N2C(C)=O)cc1Br`, the MIC in the test on Staphylococcus aureus [1] and with Staphylococcus aureus [2] was 512 µg/mL (≈ 838 µM) each time.
With `O=C1C[C@H](c2cccc(O)c2)Nc2ccc3ccccc3c21`, the MIC in the test on Staphylococcus aureus [1] and in the test on Staphylococcus aureus [2] was 62.5 µg/mL (≈ 216 µM) throughout.
On to `COc1ccc(C(=O)C2=C(O)C(=O)N(CCc3c[nH]c4ccccc34)[C@@H]2c2ccccc2Cl)cc1`, for which the MIC in the test with Staphylococcus aureus [1] and in the test on Staphylococcus aureus [2] was 253 µg/mL (≈ 520 µM) in each case.
For `C/C(=N\NC(=O)c1nnn(-c2nonc2N)c1CN1CCc2ccccc21)c1ccc(O)cc1O`, the MIC with Staphylococcus aureus [1] and against Staphylococcus aureus [2] was 525 µg/mL (≈ 1100 µM) throughout.
Consider `CO[C@@H]1[C@@H](OC(N)=O)[C@@H](O)[C@H](Oc2ccc3c(O)c(NC(=O)c4ccc(O)c(CC=C(C)C)c4)c(=O)oc3c2C)OC1(C)C` [NOVOBIOCIN], for which the MIC in the test on Staphylococcus aureus [3] is less than 1.27 µM; against Staphylococcus aureus [4] it was less than 1.27 µM; in the test on Staphylococcus aureus [1], less than 1.95 µg/mL. Further, the inhibition entry in the test with Escherichia coli [7] is “inactive”.
Take `CCOC(=O)C1=c2s/c(=C/c3ccccc3I)c(=O)n2C(N)=C(C#N)[C@@H]1c1ccccc1I`: the MIC in the test with Staphylococcus aureus [1] and against Staphylococcus aureus [2] was 264 µg/mL (≈ 387 µM) each time.
As for `COc1cc([C@@H]2C3=C(CCCC3=O)Nc3[nH]c(SCc4ccccc4Cl)nc(=O)c32)ccc1O`, the MIC against Staphylococcus aureus [1] and with Staphylococcus aureus [2] was 500 µg/mL (≈ 1010 µM) in each case.
Consider `COc1ccc(N(CC(=O)Nc2ccccc2C(N)=O)S(=O)(=O)c2ccccc2)c(OC)c1`, for which the MIC turned out to be 250 µg/mL (≈ 532 µM) against Staphylococcus aureus [1] and 62.5 µg/mL (≈ 133 µM) against Staphylococcus aureus [2].
For the compound `COc1cc([C@H]2OC[C@H]3[C@H]2CO[C@@H]3c2ccc(O)c(OC)c2)ccc1O`, the results for the MIC against Staphylococcus aureus [1] and in the test with Staphylococcus aureus [2] were 500 µg/mL (≈ 1400 µM) and 62.5 µg/mL (≈ 174 µM), respectively.
